Here are results for 28 compounds from patent US11820766B2, “Monoacylglycerol lipase modulators” (Janssen Pharmaceutica NV, priority 2018, dated 2023).

Molecules are shown by their SMILES.

One test deals with T1, human MGL from HeLa cells (Homo sapiens, UniProt Q99685).
T1 construct: combining endogenously expressed MGL from HeLa cells with test compounds; endogenous in cells; host or cells: HeLa cells / cell homogenates
T1 sequence (Q99685 1-303): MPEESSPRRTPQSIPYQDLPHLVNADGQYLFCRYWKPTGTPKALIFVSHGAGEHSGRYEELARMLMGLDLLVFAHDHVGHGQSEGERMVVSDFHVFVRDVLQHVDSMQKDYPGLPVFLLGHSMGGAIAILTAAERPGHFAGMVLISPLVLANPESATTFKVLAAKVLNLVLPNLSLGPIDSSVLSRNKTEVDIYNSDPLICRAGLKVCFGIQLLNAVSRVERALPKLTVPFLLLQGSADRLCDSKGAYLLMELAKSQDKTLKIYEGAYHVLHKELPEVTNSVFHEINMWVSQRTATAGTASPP
As to the kind of experiment: In vitro MGL activity assay: [glycerol-1,3-3H]-oleyl glycerol cleavage by MGL from HeLa cells. It is filed as biochemical. The following applies: 300 nM [Glycerol-1,3-3H]-oleyl glycerol, one hour. The text has this: MGL is the predominant hydrolase in HeLa cells/cell homogenates.
As usually defined, the IC50 is the midpoint of a concentration-inhibition curve. Higher therefore signals weaker potency in that assay. In turn, `C[C@H]1c2nn(C)c(-c3cc(F)c(F)c(F)c3)c2CCN1C(=O)c1ccc2[nH]c(=O)oc2c1` [Example 588, 6-[(7S)-2,7-Dimethyl-3-(3,4,5-trifluorophenyl)-5,7-dihydro-4H-pyrazolo[3,4-c]pyridine-6-carbonyl]-3H-1,3-benzoxazol-2-one] displayed an IC50 of 11.3 nM.
Take `Cc1ccn2c(C(=O)N3CCc4c(nn(C)c4-c4cc(F)c(F)c(F)c4)[C@@H]3C)cnc2c1` [Example 399, [(7S)-2,7-Dimethyl-3-(3,4,5-trifluorophenyl)-5,7-dihydro-4H-pyrazolo[3,4-c]pyridin-6-yl]-(7-methylimidazo[1,2-a]pyridin-3-yl)methanone]: the IC50 worked out at 63.2 nM.
Still for that read-out and setting: in the case of `C[C@H]1c2nn(C)c(-c3cc(F)c(F)c(F)c3)c2CCN1C(=O)c1ccc2nncn2c1` [Example 439, [(7S)-2,7-Dimethyl-3-(3,4,5-trifluorophenyl)-5,7-dihydro-4H-pyrazolo[3,4-c]pyridin-6-yl]-([1,2,4]triazolo[4,3-a]pyridin-6-yl)methanone] it was 9270 nM.
In turn, `C[C@H]1c2nn(C)c(-c3cccc4c3OCC4)c2CCN1C(=O)c1ccc2ncccc2c1` [Example 539, [(7S)-3-(2,3-Dihydrobenzofuran-7-yl)-2,7-dimethyl-5,7-dihydro-4H-pyrazolo[3,4-c]pyridin-6-yl]-(6-quinolyl)methanone] had an IC50 of 55.2 nM.
Same read-out and setting: the same measure for `Cc1ccn2ncc(C(=O)N3CCc4c(nn(C)c4-c4cc(F)c(F)c(F)c4)[C@@H]3C)c2c1` [Example 383, [(7S)-2,7-Dimethyl-3-(3,4,5-trifluorophenyl)-5,7-dihydro-4H-pyrazolo[3,4-c]pyridin-6-yl]-(5-methylpyrazolo[1,5-a]pyridin-3-yl)methanone]: 6.39 nM; for `Cc1cnc2c(C(=O)N3CCc4c(nn(C)c4-c4cc(F)c(F)c(F)c4)[C@@H]3C)ncn2c1` [Example 461, [(7S)-2,7-Dimethyl-3-(3,4,5-trifluorophenyl)-5,7-dihydro-4H-pyrazolo[3,4-c]pyridin-6-yl]-(3-methylimidazo[1,5-a]pyrimidin-8-yl)methanone]: 1010 nM; for `C[C@H]1c2nn(C)c(-c3cc(F)c(F)c(F)c3)c2CCN1C(=O)c1c[nH]c2cccc(F)c12` [Example 357, [(7S)-2,7-Dimethyl-3-(3,4,5-trifluorophenyl)-5,7-dihydro-4H-pyrazolo[3,4-c]pyridin-6-yl]-(4-fluoro-1H-indol-3-yl)methanone]: 8.88 nM.
The same measure, in the same setting: the same measure for `Cc1cccc2nc(C(F)(F)F)c(C(=O)N3CCc4c(nn(C)c4-c4cc(F)c(F)c(F)c4)[C@@H]3C)n12` [Example 414, [(7S)-2,7-Dimethyl-3-(3,4,5-trifluorophenyl)-5,7-dihydro-4H-pyrazolo[3,4-c]pyridin-6-yl]-[5-methyl-2-(trifluoromethyl)imidazo[1,2-a]pyridin-3-yl]methanone]: 20.4 nM.

Still in this test, the particulars now being: 300 nM [Glycerol-1,3-3H]-oleyl glycerol, one hour incubation.
Compound `C[C@H]1c2nn(C)c(-c3cc(F)cc(F)c3)c2CCN1C(=O)c1cc(OCCF)ccc1F` [Example 142, (S)-(3-(3,5-Difluorophenyl)-2,7-dimethyl-2,4,5,7-tetrahydro-6H-pyrazolo[3,4-c]pyridin-6-yl)(2-fluoro-5-(2-fluoroethoxy)phenyl)methanone] returned an IC50 of 3.7 nM.
On the same count and under the same terms, in the case of `CCC1c2nn(C)c(-c3cccc(F)c3)c2CCN1C(=O)c1ccc2ncccc2c1` (stereo not shown) [Example 136, (7-Ethyl-3-(3-fluorophenyl)-2-methyl-2,4,5,7-tetrahydro-6H-pyrazolo[3,4-c]pyridin-6-yl)(quinolin-6-yl)methanone] it was 31.4 nM.
Take `C[C@H]1c2nn(C)c(-c3cc(F)c(F)c(F)c3)c2CCN1C(=O)c1nn(C)c2ncccc12` [Example 230, (S)-(2,7-Dimethyl-3-(3,4,5-trifluorophenyl)-2,4,5,7-tetrahydro-6H-pyrazolo[3,4-c]pyridin-6-yl)(1-methyl-1H-pyrazolo[3,4-b]pyridin-3-yl)methanone]: inhibition was half-maximal at 23 nM (IC50).
`COc1cc(C(=O)N2CCc3c(nn(C)c3-c3ccccc3)C2)cc(C(F)(F)F)c1` [Example 6, (3-Methoxy-5-(trifluoromethyl)phenyl)(2-methyl-3-phenyl-2,4,5,7-tetrahydro-6H-pyrazolo[3,4-c]pyridin-6-yl)methanone] registered an IC50 of 365 nM.
On the same count and under the same terms, the same measure for `Cn1nc2c(c1-c1ccccc1)CCN(C(=O)c1coc3ccccc13)C2` [Example 36, Benzofuran-3-yl(2-methyl-3-phenyl-2,4,5,7-tetrahydro-6H-pyrazolo[3,4-c]pyridin-6-yl)methanone]: 750 nM; for `C[C@H]1c2nn(C)c(-c3cccc(Cl)c3)c2CCN1C(=O)c1cccc2c1OCO2` [Example 123, (S)-Benzo[d][1,3]dioxol-4-yl(3-(3-chlorophenyl)-2,7-dimethyl-2,4,5,7-tetrahydro-6H-pyrazolo[3,4-c]pyridin-6-yl)methanone]: 45.1 nM; for `C[C@H]1c2nn(C)c(-c3cc(F)c(F)c(F)c3)c2CCN1C(=O)c1cnc2c(ccn2C)c1` [Example 226, (S)-(2,7-Dimethyl-3-(3,4,5-trifluorophenyl)-2,4,5,7-tetrahydro-6H-pyrazolo[3,4-c]pyridin-6-yl)(1-methyl-1H-pyrrolo[2,3-b]pyridin-5-yl)methanone]: 16.2 nM.
The same measure, in the same setting: the same measure for `C[C@H]1c2nn(C)c(-c3cc(Cl)cc(Cl)c3)c2CCN1C(=O)c1ccc2ncccc2c1` [Example 174, (S)-(3-(3,5-Dichlorophenyl)-2,7-dimethyl-2,4,5,7-tetrahydro-6H-pyrazolo[3,4-c]pyridin-6-yl)(quinolin-6-yl)methanone]: 2.62 nM; for `CC1c2nn(C(F)(F)F)c(-c3cc(F)cc(F)c3)c2CCN1C(=O)c1ccc2ncccc2c1` (stereo not shown) [Example 156, (3-(3,5-Difluorophenyl)-7-methyl-2-(trifluoromethyl)-2,4,5,7-tetrahydro-6H-pyrazolo[3,4-c]pyridin-6-yl)(quinolin-6-yl)methanone]: 17 nM; for `COc1ccc(-c2c3c(nn2C)[C@H](C)N(C(=O)c2ccc4nccnc4c2)CC3)cc1F` [Example 185, (S)-(3-(3-Fluoro-4-methoxyphenyl)-2,7-dimethyl-2,4,5,7-tetrahydro-6H-pyrazolo[3,4-c]pyridin-6-yl)(quinoxalin-6-yl)methanone]: 386 nM.
Same read-out and setting: in the case of `Cc1cc(C(=O)N2CCc3c(nn(C)c3-c3cc(F)c(F)c(F)c3)[C@@H]2C)cc2cn[nH]c12` [Example 210, (S)-(2,7-Dimethyl-3-(3,4,5-trifluorophenyl)-2,4,5,7-tetrahydro-6H-pyrazolo[3,4-c]pyridin-6-yl)(7-methyl-1H-indazol-5-yl)methanone] it was 0.6 nM.
Take `COc1ccc(-n2nccn2)c(C(=O)N2CCc3c(nn(C)c3-c3cc(F)c(F)c(F)c3)[C@@H]2C)c1` [Example 289, [(7S)-2,7-Dimethyl-3-(3,4,5-trifluorophenyl)-5,7-dihydro-4H-pyrazolo[3,4-c]pyridin-6-yl]-[5-methoxy-2-(triazol-2-yl)phenyl]methanone]: the IC50 stood at 19.8 nM.
Consider `C[C@H]1c2nn(C)c(-c3cc(F)cc(Cl)c3)c2CCN1C(=O)c1ccc2ncccc2c1` [Example 178, (S)-(3-(3-Chloro-5-fluorophenyl)-2,7-dimethyl-2,4,5,7-tetrahydro-6H-pyrazolo[3,4-c]pyridin-6-yl)(quinolin-6-yl)methanone], for which half-maximal inhibition (IC50) required 4.16 nM.
Still for that read-out and setting: in the case of `Cn1nc2c(c1-c1ccccc1)CCN(C(=O)c1cccc3sccc13)C2` [Example 38, Benzo[b]thiophen-4-yl(2-methyl-3-phenyl-2,4,5,7-tetrahydro-6H-pyrazolo[3,4-c]pyridin-6-yl)methanone] it was 68 nM; in that of `Cc1nc2ccc(C(=O)N3CCc4c(nn(C)c4-c4cccc(Cl)c4)[C@@H]3C)cc2o1` [Example 125, (S)-(3-(3-Chlorophenyl)-2,7-dimethyl-2,4,5,7-tetrahydro-6H-pyrazolo[3,4-c]pyridin-6-yl)(2-methylbenzo[d]oxazol-6-yl)methanone], 9.52 nM; in that of `Cn1nc2c(c1-c1ccccc1)CCN(C(=O)c1ccc3[nH]ncc3c1)C2` [Example 64, (1H-Indazol-5-yl)(2-methyl-3-phenyl-2,4,5,7-tetrahydro-6H-pyrazolo[3,4-c]pyridin-6-yl)methanone], 56.2 nM.
On the same count and under the same terms, the same measure for `Cn1nc2c(c1-c1ccccc1)CCN(C(=O)c1n[nH]c3ccccc13)C2` [Example 66, (1H-Indazol-3-yl)(2-methyl-3-phenyl-2,4,5,7-tetrahydro-6H-pyrazolo[3,4-c]pyridin-6-yl)methanone]: 300 nM.
Still for that read-out and setting: the same measure for `COc1cc(F)cc(-c2c3c(nn2C)[C@H](C)N(C(=O)c2ccc4nccnc4c2)CC3)c1` [Example 186, (S)-(3-(3-Fluoro-5-methoxyphenyl)-2,7-dimethyl-2,4,5,7-tetrahydro-6H-pyrazolo[3,4-c]pyridin-6-yl)(quinoxalin-6-yl)methanone]: 46 nM; for `Cn1nc2c(c1-c1ccccc1)CCN(C(=O)c1ccc3ncccc3c1)C2` [Example 90, (2-Methyl-3-phenyl-2,4,5,7-tetrahydro-6H-pyrazolo[3,4-c]pyridin-6-yl)(quinolin-6-yl)methanone]: 227 nM; for `C[C@H]1c2nn(C)c(-c3cc(F)c(F)c(F)c3)c2CCN1C(=O)c1cccn2nccc12` [Example 227, (S)-(2,7-Dimethyl-3-(3,4,5-trifluorophenyl)-2,4,5,7-tetrahydro-6H-pyrazolo[3,4-c]pyridin-6-yl)(pyrazolo[1,5-a]pyridin-4-yl)methanone]: 9.51 nM.
